We go through 12 compounds from US20260116921A1, “PEPTIDE INHIBITORS OF INTERLEUKIN-23 RECEPTOR AND THEIR USE TO TREAT INFLAMMATORY DISEASES” (priority 2018, published 2026).

The structures appear in SMILES notation. Numbered stars: 1 amine (or outer) side, 2 acyl side, 3 side chain; on linkers, the order of the positions; unused ones are H or OH. Bridge positions count the residues as written; N and C are the ends. Square brackets hold non-standard residues; d marks the D form. Peptide text beside a SMILES is read from it. Trp(7-Me) = Cc1cccc2c(C[C@H](N)C(=O)O)c[nH]c12; Abu(4-yl) = O=C([C@H](CC[*:3])N[*:1])[*:2]; 2Nal = N[C@@H](Cc1ccc2ccccc2c1)C(=O)O; AEF = NCCOc1ccc(C[C@H](N)C(=O)O)cc1; Cit = NC(=O)NCCC[C@H](N)C(=O)O; Pen = CC(C)(S)[C@H](N)C(=O)O; αMeK = C[C@](N)(CCCCN)C(=O)O

The nature of series [1]: in vitro. To be noted: cynomolgus monkey, 20% fecal homogenate (supernatant), anaerobic, pH 6.8.
Another series has as its target T1, IL-23R (Homo sapiens, UniProt Q5VWK5).
T1 sequence (Q5VWK5 24-629): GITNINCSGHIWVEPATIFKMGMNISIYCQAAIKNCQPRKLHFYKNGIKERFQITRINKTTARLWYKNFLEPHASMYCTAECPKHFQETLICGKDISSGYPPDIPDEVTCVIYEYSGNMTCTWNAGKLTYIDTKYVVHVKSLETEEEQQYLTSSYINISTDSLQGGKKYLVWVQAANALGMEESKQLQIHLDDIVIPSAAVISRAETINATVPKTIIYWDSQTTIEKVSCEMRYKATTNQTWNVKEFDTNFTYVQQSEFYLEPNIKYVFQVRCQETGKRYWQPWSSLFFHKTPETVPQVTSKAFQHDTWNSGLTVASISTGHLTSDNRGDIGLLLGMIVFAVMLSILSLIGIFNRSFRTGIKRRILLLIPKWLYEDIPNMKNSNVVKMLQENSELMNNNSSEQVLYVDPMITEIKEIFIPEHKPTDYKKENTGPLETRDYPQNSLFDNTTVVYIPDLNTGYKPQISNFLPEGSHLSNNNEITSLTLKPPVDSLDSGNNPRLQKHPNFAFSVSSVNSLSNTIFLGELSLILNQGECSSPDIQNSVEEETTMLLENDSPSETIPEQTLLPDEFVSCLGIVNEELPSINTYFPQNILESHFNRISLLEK
Briefly: DB cells IL23R pSTAT3 cell assay (pStat3 HTRF). In kind it is cell-based. To be noted: Table E3; DB cells, IL-23 0.5 nM, 30 minutes at 37° C.; read-out: pStat3 HTRF (IC50). An outline of the steps:
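HTRF readout of lysate pSTAT3 (Tyr705) after two-plate processing. Peptide dilution series co-incubated with IL-23 (0.5 nM final) on 5×10E5 IL-23R-expressing DB cells per well, 30 min, 37 °C.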

The nature of series [2]: in vitro. To be noted: human, 20% fecal homogenate (supernatant), anaerobic, pH 6.8.
Series [3] is described as follows: in vitro. The series is classed as in vitro ADME. More on the design: half-life: dose or concentration left out as unconfirmed. To be noted: simulated intestinal fluid (SIF) with pancreatin, pH 6.8, 37° C., § matrix is 100 fold dilution of standard SIF concentration, read-out: SIF t½ (converted).
Description: SIF was prepared by adding 6.8 g of monobasic potassium phosphate and 10.0 g of pancreatin to 1.0 L of water. After dissolution, the pH was adjusted to 6.8 using NaOH. DMSO stocks (2 mM) were first prepared for the test compounds. Aliquots of the DMSO solutions were dosed into 6 individual tubes, each containing 0.5 mL of SIF, which is pre-warmed to 37° C. The final test compound concentration was 20 M. The vials were kept in a benchtop Thermomixer® for the duration of the experiment. At each timepoint (0, 5, 10, 20, 40, 60, or 360 minutes or 24 hours), 1.0 mL of acetonitrile containing 1% formic acid was added to one vial to terminate the reaction. Samples were stored at 4° C. until the end of the experiment. After the final timepoint is sampled, the tubes were mixed and then centrifuged at 3,000 rpm for 10 minutes. Aliquots of the supernatant were removed, diluted 1:1 into distilled water containing internal standard, and analyzed by LCMS/MS. Percent remaining at each timepoint was calculated based on the peak area response ratio of test to compound to internal standard. Time 0 was set to 100%, and all later timepoints were calculated relative to time 0. Half-lives were calculated by fitting to a first-order exponential decay equation using Graphpad.
The nature of series [4]: in vitro. Conditions: both, SD, rat, plasma (EDTA).

Take `CC(=O)N[C@H]1CCSC[C@@H](C(=O)N[C@@H](Cc2ccc(OCCN)cc2)C(=O)N[C@@H](Cc2ccc3ccccc3c2)C(=O)NC2(C(=O)N[C@@H](CCC(=O)O)C(=O)N[C@@H](CC(N)=O)C(=O)NCCC(N)=O)CCOCC2)NC(=O)[C@H](CCC(N)=O)NC(=O)[C@H](Cc2c[nH]c3c(C)cccc23)NC(=O)[C@H]([C@@H](C)O)NC(=O)[C@H](CCC(N)=O)NC1=O` [compound 204]: the half-life at 20 μM in “in vitro [1]” is 300 min; in the series “in vitro [2]”, 60 min. For the same compound, the IC50 on IL-23R is 1 to 10 nM. In the series “in vitro [3]”, the half-life was 1140 min.
`CC(=O)NCCCC[C@@H]1NC(=O)[C@H](Cc2c[nH]c3c(C)cccc23)NC(=O)[C@H]([C@@H](C)O)NC(=O)[C@H](CC(N)=O)NC(=O)[C@@H](NC(C)=O)C(C)(C)SSC(C)(C)[C@@H](C(=O)N[C@@H](Cc2ccc(OCCN)cc2)C(=O)N[C@@H](Cc2ccc3ccccc3c2)C(=O)N[C@@](C)(CCCCN)C(=O)N[C@@H](CCCCNC(C)=O)C(=O)N[C@@H](CC(N)=O)C(=O)N[C@@H](CCCNC(=N)N)C(N)=O)NC1=O` [compound 243]: the half-life at 20 μM in the series “in vitro [4]” was 1260 min; in the series “in vitro [2]”, 60 min. Also, the IC50 on IL-23R fell in the range of 1 to 10 nM. Further, in the series “in vitro [3]”, the half-life is less than 60 min.
For `CC(=O)NCCCC[C@@H]1NC(=O)[C@H](Cc2c[nH]c3c(C)cccc23)NC(=O)[C@H]([C@@H](C)O)NC(=O)[C@H](CC(N)=O)NC(=O)[C@@H](NC(C)=O)C(C)(C)SSC(C)(C)[C@@H](C(=O)N[C@@H](Cc2ccc(OCCN)cc2)C(=O)N[C@@H](Cc2ccc3ccccc3c2)C(=O)N[C@@](C)(CCCCN)C(=O)N[C@@H](CCCCNC(C)=O)C(=O)N[C@@H](CC(N)=O)C(=O)N[C@@H](CC(C)C)C(N)=O)NC1=O` [compound 244], the results for the half-life at 20 μM in the series “in vitro [4]” and in the series “in vitro [2]” were more than 1440 min and 1140 min, respectively. Moreover, the IC50 on IL-23R is 1 to 10 nM. In addition, the half-life in the series “in vitro [3]” is 60 min.
For the compound `CC(=O)NCCCC[C@@H]1NC(=O)[C@H](Cc2c[nH]c3c(C)cccc23)NC(=O)[C@H]([C@@H](C)O)NC(=O)[C@H](CC(N)=O)NC(=O)[C@@H](NC(C)=O)C(C)(C)SSC(C)(C)[C@@H](C(=O)N[C@@H](Cc2ccc(OCCN)cc2)C(=O)N[C@@H](Cc2ccc3ccccc3c2)C(=O)N[C@@](C)(CCCCN)C(=O)N[C@@H](CCCCNC(C)=O)C(=O)N[C@@H](CC(N)=O)C(=O)N[C@@H](Cc2c[nH]cn2)C(N)=O)NC1=O` [compound 248], the half-life at 20 μM in “in vitro [1]” was 360 min; in the series “in vitro [4]”, more than 1440 min; in the series “in vitro [2]” it was more than 1440 min. In addition, the half-life in “in vitro [3]” is 180 min.
With `CC(=O)NCCCC[C@@H]1NC(=O)[C@H](Cc2c[nH]c3c(C)cccc23)NC(=O)[C@H]([C@@H](C)O)NC(=O)[C@H](CC(N)=O)NC(=O)[C@@H](NC(C)=O)C(C)(C)SSC(C)(C)[C@@H](C(=O)N[C@@H](Cc2ccc(OCCN)cc2)C(=O)N[C@@H](Cc2ccc3ccccc3c2)C(=O)N[C@@](C)(CCCCN)C(=O)N[C@@H](CCCCNC(C)=O)C(=O)N[C@@H](CC(N)=O)C(=O)N[C@@H](CCCNC(N)=O)C(N)=O)NC1=O` [compound 249], the values for the half-life at 20 μM in “in vitro [1]”, in the series “in vitro [4]” and in the series “in vitro [2]” were 300 min, more than 1440 min and more than 1440 min, respectively. For the same compound, on IL-23R, the IC50 is less than 1 nM. The half-life in “in vitro [3]” was 420 min.
`CC(=O)NCCCC[C@@H]1NC(=O)[C@H](Cc2c[nH]c3c(C)cccc23)NC(=O)[C@H]([C@@H](C)O)NC(=O)[C@H](CC(N)=O)NC(=O)[C@@H](NC(C)=O)C(C)(C)SSC(C)(C)[C@@H](C(=O)N[C@@H](Cc2ccc(OCCN)cc2)C(=O)N[C@@H](Cc2ccc3ccccc3c2)C(=O)N[C@@](C)(CCCCN)C(=O)N[C@@H](CCCCNC(C)=O)C(=O)N[C@@H](CC(N)=O)C(=O)N[C@H](C(N)=O)C(C)C)NC1=O` [compound 250]: the half-life at 20 μM in “in vitro [1]” was 720 min; in the series “in vitro [4]” it was more than 1440 min; in the series “in vitro [2]”, more than 1440 min. Also, on IL-23R, the IC50 lay within 1 to 10 nM. Also, in “in vitro [3]”, the half-life is 1020 min.
In the case of `CC(=O)NCCCC[C@@H]1NC(=O)[C@H](Cc2c[nH]c3c(C)cccc23)NC(=O)[C@H]([C@@H](C)O)NC(=O)[C@H](CC(N)=O)NC(=O)[C@@H](NC(C)=O)C(C)(C)SSC(C)(C)[C@@H](C(=O)N[C@@H](Cc2ccc(OCCN)cc2)C(=O)N[C@@H](Cc2ccc3ccccc3c2)C(=O)N[C@@](C)(CCCCN)C(=O)N[C@@H](CCCCNC(C)=O)C(=O)N[C@@H](CC(N)=O)C(=O)N[C@@H](C(N)=O)C(C)C)NC1=O` [compound 251], the half-life at 20 μM in “in vitro [1]”, in the series “in vitro [4]” and in the series “in vitro [2]” was more than 1440 min throughout. Further, at IL-23R, the IC50 was less than 1 nM. In “in vitro [3]”, the half-life was 1320 min.
With `CC(=O)NCCCC[C@@H]1NC(=O)[C@H](Cc2c[nH]c3c(C)cccc23)NC(=O)[C@H]([C@@H](C)O)NC(=O)[C@H](CC(N)=O)NC(=O)[C@@H](NC(C)=O)C(C)(C)SSC(C)(C)[C@@H](C(=O)N[C@@H](Cc2ccc(OCCN)cc2)C(=O)N[C@@H](Cc2ccc3ccccc3c2)C(=O)N[C@@](C)(CCCCN)C(=O)N[C@@H](CCCCNC(C)=O)C(=O)N[C@@H](CC(N)=O)C(=O)N2CCC[C@H]2C(N)=O)NC1=O` [compound 253], the half-life at 20 μM in the series “in vitro [1]” was 180 min; in the series “in vitro [4]”, more than 1440 min; in “in vitro [2]” it was 60 min. Further, the IC50 at IL-23R fell in the range of 1 to 10 nM. Besides, the half-life in the series “in vitro [3]” is 660 min.
Taken in the same sequence, the figures for `CC(=O)NCCCC[C@@H]1NC(=O)[C@H](Cc2c[nH]c3c(C)cccc23)NC(=O)[C@H]([C@@H](C)O)NC(=O)[C@H](CC(N)=O)NC(=O)[C@@H](NC(C)=O)C(C)(C)SSC(C)(C)[C@@H](C(=O)N[C@@H](Cc2ccc(OCCN)cc2)C(=O)N[C@@H](Cc2ccc3ccccc3c2)C(=O)N[C@@](C)(CCCCN)C(=O)N[C@@H](CCCCNC(C)=O)C(=O)N[C@@H](CC(N)=O)C(=O)N2CCC[C@@H]2C(N)=O)NC1=O` [compound 254] were more than 1440 min, 720 min, more than 1440 min, 1 to 10 nM and 960 min.
Taken in the same sequence, the figures for `CC[C@H](C)[C@H](NC(=O)[C@H](CC(N)=O)NC(=O)[C@H](CCCCNC(C)=O)NC(=O)[C@](C)(CCCCN)NC(=O)[C@H](Cc1ccc2ccccc2c1)NC(=O)[C@H](Cc1ccc(OCCN)cc1)NC(=O)[C@H]1NC(=O)[C@H](CCCCNC(C)=O)NC(=O)[C@H](Cc2c[nH]c3c(C)cccc23)NC(=O)[C@H]([C@@H](C)O)NC(=O)[C@H](CC(N)=O)NC(=O)[C@@H](NC(C)=O)C(C)(C)SSC1(C)C)C(N)=O` [compound 255] were 900 min, more than 1440 min, more than 1440 min, 1 to 10 nM and 1140 min.
As for `CC(=O)NCCCC[C@H](NC(=O)[C@](C)(CCCCN)NC(=O)[C@H](Cc1ccc2ccccc2c1)NC(=O)[C@H](Cc1ccc(OCCN)cc1)NC(=O)[C@H]1NC(=O)[C@H](CCCNC(N)=O)NC(=O)[C@H](Cc2c[nH]c3c(C)cccc23)NC(=O)[C@H]([C@@H](C)O)NC(=O)[C@H](CC(N)=O)NC(=O)[C@@H](NC(C)=O)C(C)(C)SSC1(C)C)C(=O)N[C@@H](CC(N)=O)C(=O)N[C@H](Cc1ccccc1)C(N)=O` [compound 257] (Ac-[Pen]NT[Trp(7-Me)][Cit][Pen][AEF][2Nal][αMeK]K(Ac)N[dF]-NH2; disulfide 1-6), the half-life at 20 μM in “in vitro [1]” is 1380 min; in the series “in vitro [4]”, more than 1440 min; in “in vitro [2]”, more than 1440 min. In addition, the IC50 on IL-23R is 1 to 10 nM. In “in vitro [3]”, the half-life was 300 min.
On to `CC(=O)NCCCC[C@@H]1NC(=O)[C@H](Cc2c[nH]c3c(C)cccc23)NC(=O)[C@H]([C@@H](C)O)NC(=O)[C@H](CCC(N)=O)NC(=O)[C@@H](NC(=O)[C@@H](CCCNC(=N)N)NC(C)=O)CCSC[C@@H](C(=O)N[C@@H](Cc2ccc(OCCN)cc2)C(=O)N[C@@H](Cc2ccc3ccccc3c2)C(=O)N[C@@](C)(CCCCN)C(=O)N[C@@H](CCCCNC(C)=O)C(=O)N[C@@H](CC(N)=O)C(=O)N[C@H](CCCCN)C(N)=O)NC1=O` [compound 324] (Ac-[dR][Abu(4-yl)]QT[Trp(7-Me)]K(Ac)C[AEF][2Nal][αMeK]K(Ac)N[dK]-NH2; thioether 2-7), for which the IC50 at IL-23R was 10 to 100 nM. Moreover, in the series “in vitro [3]”, the half-life was 60 min.
